Experimental data as given in US20260306460A1, “COMPOSITION FOR REMOVING AND INHIBITING SENESCENT CELLS, AND USES THEREOF” (LIFECEUTIX CO., LTD., priority 2023, published 2026).

Assays:
[1] = tested on: non-senescent proliferating human cells; experiment: Effect on non-senescent (proliferating) human cells; assay type: cell-based; settings: normally proliferating foreskin cells; 30 μM, 3 days
Text: Based on the results of Example 10 of WO2023-085787 A1, compounds that induce the death of senescent cells through a mechanism similar to LX-112, unlike existing senescent cell removers such as ABT-263, were screened based on HMGN1. […] The following test compounds were synthesized by and purchased from Medchemexpress, Selleckchem, Cayman, Medkoo, Sigma, Molport, Enzo, TCI, Santa Cruz, REONSIMI, Abcam, Alfa Aesar, APExBIO, BOCSCI, Merck, Thermo Fisher Scientific, R&D Systems, ChemFaces, Aobious, etc. […] In cells in which senescence was not induced by treatment with the control group (DMSO), the amount of HMGN1 above the effective value (sensitivity: 35 pg/ml), analysis limit, was not detected in both untreated and treated conditions with the test compound. On the other hand, in cells where senescence was induced by treatment with doxorubicin, the amount of HMGN1 was measured at 80 to 90 pg/ml. […]
After 3 days, cell viability was measured using CellTiter-Glo Luminescent Cell Viability Assay (Promega) or light microscopy.
Using the same method as Example 11, compounds that induce senescent cell death through a mechanism similar to that of LX-112 (ethaselen (1,2-[bis(1,2-benzisoselenazolone-3 (2H)-ketone)]ethane)) were screened based on HMGN1 and others. […] On the other hand, in cells senescent with doxorubicin, an amount of HMGN1 of […] was measured. […]

senescent A549 cells = experiment: Viability of senescent A549 cancer cells (CellTiter-Glo), Example 12; assay type: cell-based, human; settings: 0 μM = 100
Description: Cells were treated with doxorubicin or control (DMSO) and cultured.
Cancer cells in which aging was induced by treatment with doxorubicin were treated with the test compound at designated concentrations and measured using the CellTiter-Glo Luminescent Cell Viability Assay (Promega).

[2] = tested on: HMGN1 secreted from senescent human cells; experiment: HMGN1 secretion (ELISA) from doxorubicin-induced senescent human cells, Example 11; assay type: cell-based; settings: senescent untreated = 100%; 30 μM; 90 μM for LX-305, 1302, 1603, 2005, 2702, 2901, 3106; 270 μM for LX-1103, 2007
[3] = tested on: obesity-induced aged C57BL6J mice; experiment: Open field test in obese aged mice given senescent cells killed by test compound, Example 16; assay type: in vivo, mouse; settings: senescent preadipocytes killed by test compound sc; no administration = 100%
[4] = tested on: naturally aged C57BL6J mice; experiment: Kidney damage markers (urea, creatinine, Agtr1a mRNA) in naturally aged mice, Example 21-9, Table 24; assay type: in vivo, mouse; settings: untreated aged = 100%; for Agtr1a mRNA (%): qRT-PCR; for Creatinine (%) / Urea (%): serum
Description: 22-month-old female C57BL6J mice (KRIBB Laboratory Animal Resource Center) were acclimated to the experimental environment for one week, after which the aged mice were randomly assigned to experimental and control groups. Eight-week-old, non-aged mice served as controls. LX-403 was mixed in a 10% ethanol solution of PEG400 and administered orally at a concentration of 25 mg/kg daily for 21 days, or administered to the skin, joints, or eyes at a concentration of 1 μM. LX-1801 was mixed in distilled water with 4% DMSO, 30% PEG300, and 5% Tween80 and administered to the skin, joints, or eyes at a concentration of 0.4 μM daily for 21 days. LX-2001 was mixed in PBS and administered to the skin, joints, or eyes at a concentration of […] daily for 21 days. LX-2002 was mixed in distilled water with 4% DMSO, 30% PEG300, and 5% Tween80 and administered to the skin, joints, or eyes at a concentration of 2 μM daily for 21 days. […] LX-2005 was mixed in distilled water with 4% DMSO, 30% PEG300, and 5% Tween80 and administered to the skin, joints, or eyes at a concentration of 90 μM daily for 21 days. LX-2007 was mixed in distilled water with 4% DMSO, 30% PEG300, and 5% Tween80 and administered to the skin, joints, or eyes at a concentration of 90 μM daily for 21 days. […] LX-3002 was mixed in distilled water with 4% DMSO, 30% PEG300, and 5% Tween80 and administered orally at a concentration of 10 mg/kg daily for 21 days. […] LX-5411 was mixed in 5% PBS and administered orally at a concentration of 10 mg/kg daily for 21 days or administered to the skin, joints, or eyes at a concentration of 3 μM. LX-5701 was mixed in PBS and administered orally at a concentration of 360 mg/kg daily for 21 days. LX-6807 was mixed in saline and administered intraperitoneally at a concentration of 1 mg/kg daily for 21 days. LX-2101 or LX-2102 was mixed in PBS solution with 5% DMSO and administered intraperitoneally at a concentration of 20 mg/kg or 10 mg/kg, respectively, daily for 21 days. The control group received only the solution in the same volume. After the end of drug administration, the methods described in each example below were performed.
The levels of urea and creatinine, markers of kidney damage, in serum collected from mice were measured spectrophotometrically using kits (BioAssay Systems and Sigma). Additionally, the amount of Agtr1a mRNA, a marker of kidney damage, was measured using qRT-PCR as described in Example 7-2 of WO2023-085787 A1. […] The amount of each factor after aging was calculated as 100% and compared with the amount of each factor after test compound treatment.

senescent cells = experiment: Viability of senescent cells (CellTiter-Glo), Example 17, Table 13; settings: Homo sapiens, read-out: Survival (%)
Description: Cells induced to undergo senescence by doxorubicin treatment were treated with test compound at designated concentrations and measured using the CellTiter-Glo Luminescent Cell Viability Assay (Promega).

Compound	Agtr1a mRNA (%) [4]	Creatinine (%) [4]	Urea (%) [4]	viability at 1.1 µM (senescent cells) [%]	viability at 10 µM (senescent cells) [%]	also measured
COC(=O)c1ccc([C@H]2c3[nH]c4ccccc4c3C[C@H](C(=O)OC)N2C(=O)CCl)cc1 [LX-405]	–	–	–	–	–	induced death of cells [1]: induced the death of most cells
S=C(N/N=C1\CCCc2cccnc21)N1CCN(c2ccccn2)CC1 [LX-801]	–	–	–	–	–	Survival (senescent A549 cells; 1.1 μM): 78.1%; Survival (senescent A549 cells; 10 μM): 12.7%; Survival (senescent A549 cells; […]): 58.5%; HMGN1 [2]: 265%; Open Field Test Time in Center [3]: 216.8 (±12.8) %
CCCC\C=C/C=C/C=C\CCCCCCCC(=O)O [LX-2707, Punicic acid]	68 (±3.3) %	73 (±4.3) %	78 (±3.1) %	–	–	–
COC(=O)[C@H]1Cc2c([nH]c3ccccc23)[C@H](c2ccc(S(C)(=O)=O)cc2)N1C(=O)CCl [LX-5401, methyl (1S,3R)-2-(2-chloroacetyl)-1-(4-(methylsulfonyl)phenyl)-2,3,4,9-tetrahydro-1H-pyrido[3,4-b]indole-3-carboxylate]	–	–	–	99.5	66	viability at 30 µM (senescent cells): 24.6%
C#CC(=O)N1[C@@H](CCCC)Cc2cc(OC)ccc2[C@@H]1c1ccc(NC23CC4CC(CC(C4)C2)C3)cc1 [LX-5411]	–	–	–	75.4	2.8	–
O=C1C2CCN(CC2)C1CNC(=O)C(F)(F)F (centres unmarked) [LX-5701]	44 (±2.3) %	68 (±6.3) %	71 (±4.0) %	91.4	19.3	–
Cc1cccc([C@H](C)c2cnc[nH]2)c1C [LX-6807, Dexmedetomidine]	37 (±4.0) %	57 (±2.0) %	68 (±2.7) %	95.1	42.5	viability at 30 µM (senescent cells): 6.9%
Tocofersolan [LX-3001]	61 (±2.0) %	75 (±3.2) %	81 (±5.4) %	–	–	Survival (senescent A549 cells; 1.1 μM): 101.6%; Survival (senescent A549 cells; 10 μM): 22.6%; Survival (senescent A549 cells; […]): 95.6%; HMGN1 [2]: 301%
